From PubChem BioAssay (NCI)
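Method: 48-hour compound exposure of cells in 96-well plates, five concentrations, linear interpolation of endpoints. TGI: concentration producing complete growth inhibition.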

Legend:
Assay in all cases: inhibition of tumour cell growth, NCI panel, 48 h
NCI-H23 lung = tested on: NCI-H23 lung
HS 578T breast = tested on: HS 578T breast
A549 NSCLC = tested on: A549 NSCLC
HT29 colon = tested on: HT29 colon
MDA-N = tested on: MDA-N
SK-OV-3 ovarian = tested on: SK-OV-3 ovarian
OVCAR-8 ovarian = tested on: OVCAR-8 ovarian
BT-549 breast = tested on: BT-549 breast
SF-295 CNS = tested on: SF-295 CNS
TK-10 renal = tested on: TK-10 renal
OVCAR-5 ovarian = tested on: OVCAR-5 ovarian
NCI-H226 lung = tested on: NCI-H226 lung
UACC-257 melanoma = tested on: UACC-257 melanoma
MALME-3M melanoma = tested on: MALME-3M melanoma
M14 melanoma = tested on: M14 melanoma
RPMI-8226 leukemia = tested on: RPMI-8226 leukemia
MDA-MB-435 = tested on: MDA-MB-435
KM12 colon = tested on: KM12 colon
SK-MEL-2 melanoma = tested on: SK-MEL-2 melanoma
OVCAR-3 ovarian = tested on: OVCAR-3 ovarian
NCI-H460 lung = tested on: NCI-H460 lung
HCC-2998 colon = tested on: HCC-2998 colon
SN12C renal = tested on: SN12C renal
786-0 renal = tested on: 786-0 renal
SR leukemia = tested on: SR leukemia
SF-268 CNS = tested on: SF-268 CNS
HCT-116 colon = tested on: HCT-116 colon
HL-60(TB) leukemia = tested on: HL-60(TB) leukemia
MCF7 breast = tested on: MCF7 breast
DU-145 prostate = tested on: DU-145 prostate
MOLT-4 leukemia = tested on: MOLT-4 leukemia
UACC-62 melanoma = tested on: UACC-62 melanoma
NCI-H522 lung = tested on: NCI-H522 lung
T-47D breast = tested on: T-47D breast
PC-3 prostate = tested on: PC-3 prostate
UO-31 renal = tested on: UO-31 renal
HOP-92 NSCLC = tested on: HOP-92 NSCLC
IGROV1 ovarian = tested on: IGROV1 ovarian
LOX IMVI melanoma = tested on: LOX IMVI melanoma
A498 renal = tested on: A498 renal
EKVX NSCLC = tested on: EKVX NSCLC
NCI/ADR-RES ovarian = tested on: NCI/ADR-RES ovarian
CAKI-1 renal = tested on: CAKI-1 renal
SK-MEL-28 melanoma = tested on: SK-MEL-28 melanoma
RXF 393 renal = tested on: RXF 393 renal
SW-620 colon = tested on: SW-620 colon
K-562 leukemia = tested on: K-562 leukemia
ACHN renal = tested on: ACHN renal
HCT-15 colon = tested on: HCT-15 colon
SK-MEL-5 melanoma = tested on: SK-MEL-5 melanoma
SNB-19 CNS = tested on: SNB-19 CNS
OVCAR-4 ovarian = tested on: OVCAR-4 ovarian
HOP-62 NSCLC = tested on: HOP-62 NSCLC
MDA-MB-231 breast = tested on: MDA-MB-231 breast
CCRF-CEM leukemia = tested on: CCRF-CEM leukemia
U251 CNS = tested on: U251 CNS
SF-539 CNS = tested on: SF-539 CNS
COLO 205 colon = tested on: COLO 205 colon
SNB-75 CNS = tested on: SNB-75 CNS

`CC(=O)Oc1ccc2[nH]c3c(C)c4cccc-4ccc3c2c1` was tested, and the TGI (NCI-H23 lung) was 3.96 µM, the TGI (HS 578T breast) was 7.74 µM and the TGI (A549 NSCLC) was 4.7 µM. The TGI (HT29 colon) was 4.18 µM, the TGI (MDA-N) was 4.93 µM and the TGI (SK-OV-3 ovarian) was 4.28 µM. It also gave a TGI (OVCAR-8 ovarian) of 4.63 µM, a TGI (BT-549 breast) of 5.37 µM and a TGI (SF-295 CNS) of 4.32 µM. For the same molecule, the TGI (TK-10 renal) was 3.57 µM, the TGI (OVCAR-5 ovarian) was 4.14 µM and the TGI (NCI-H226 lung) was 3.11 µM. The TGI (UACC-257 melanoma) was 4.07 µM, the TGI (MALME-3M melanoma) was 3.63 µM and the TGI (M14 melanoma) was 4.21 µM. For the same molecule, the TGI (RPMI-8226 leukemia) was 11 µM, the TGI (MDA-MB-435) was 3.81 µM and the TGI (KM12 colon) was 5.47 µM. It also gave a TGI (SK-MEL-2 melanoma) of 3.66 µM, a TGI (OVCAR-3 ovarian) of 3.64 µM and a TGI (NCI-H460 lung) of 10.3 µM. It also gave a TGI (HCC-2998 colon) of 5.05 µM, a TGI (SN12C renal) of 4.49 µM and a TGI (786-0 renal) of 3.36 µM. The TGI (SR leukemia) was 34.6 µM, the TGI (SF-268 CNS) was 4.19 µM and the TGI (HCT-116 colon) was 4.31 µM. For the same molecule, the TGI (HL-60(TB) leukemia) was 6.87 µM, the TGI (MCF7 breast) was 10.7 µM and the TGI (DU-145 prostate) was 12.7 µM. The TGI (MOLT-4 leukemia) was 9.82 µM, the TGI (UACC-62 melanoma) was 3.42 µM and the TGI (NCI-H522 lung) was 3.86 µM. It also gave a TGI (T-47D breast) of 8.22 µM, a TGI (PC-3 prostate) of 3.37 µM and a TGI (UO-31 renal) of 3.19 µM. For the same molecule, the TGI (HOP-92 NSCLC) was 4.17 µM, the TGI (IGROV1 ovarian) was 3.2 µM and the TGI (LOX IMVI melanoma) was 4.4 µM. For the same molecule, the TGI (A498 renal) was 5.53 µM, the TGI (EKVX NSCLC) was 4.21 µM and the TGI (NCI/ADR-RES ovarian) was 5.33 µM. For the same molecule, the TGI (CAKI-1 renal) was 3.41 µM, the TGI (SK-MEL-28 melanoma) was 4.47 µM and the TGI (RXF 393 renal) was 3.78 µM. The TGI (SW-620 colon) was 10.7 µM, the TGI (K-562 leukemia) was 11.5 µM and the TGI (ACHN renal) was 3.33 µM. The TGI (HCT-15 colon) was 5 µM, the TGI (SK-MEL-5 melanoma) was 3.95 µM and the TGI (SNB-19 CNS) was 3.69 µM. It also gave a TGI (OVCAR-4 ovarian) of 3.5 µM and a TGI (HOP-62 NSCLC) of 4.8 µM.
`Cc1c(S(=O)(=O)/N=C(\NN)Nc2ccc(Cl)cc2)sc2ccc(Cl)cc12` gave a TGI (NCI-H23 lung) of 35.6 µM, a TGI (HS 578T breast) of 59.1 µM and a TGI (A549 NSCLC) of 31.6 µM. The TGI (HT29 colon) was 30.7 µM, the TGI (MDA-N) was 29.1 µM and the TGI (SK-OV-3 ovarian) was 35.9 µM. The TGI (OVCAR-8 ovarian) was 34.7 µM, the TGI (MDA-MB-231 breast) was 32 µM and the TGI (BT-549 breast) was 30.9 µM. The TGI (CCRF-CEM leukemia) was over 100 µM, the TGI (SF-295 CNS) was 33.6 µM and the TGI (TK-10 renal) was 31.8 µM. For the same molecule, the TGI (OVCAR-5 ovarian) was 27.9 µM, the TGI (NCI-H226 lung) was 41.6 µM and the TGI (UACC-257 melanoma) was 33.8 µM. It also gave a TGI (MALME-3M melanoma) of 39.1 µM, a TGI (M14 melanoma) of 34.8 µM and a TGI (RPMI-8226 leukemia) of over 100 µM. It also gave a TGI (KM12 colon) of 30 µM, a TGI (SK-MEL-2 melanoma) of 30.5 µM and a TGI (OVCAR-3 ovarian) of 32 µM. It also gave a TGI (NCI-H460 lung) of 34.8 µM, a TGI (SN12C renal) of 30.9 µM and a TGI (U251 CNS) of 30.4 µM. It also gave a TGI (SF-539 CNS) of 31.5 µM, a TGI (COLO 205 colon) of 33.4 µM and a TGI (SNB-75 CNS) of 28.4 µM. It also gave a TGI (786-0 renal) of 31.5 µM, a TGI (SR leukemia) of 65.1 µM and a TGI (SF-268 CNS) of 33.8 µM. It also gave a TGI (HCT-116 colon) of 26.4 µM, a TGI (HL-60(TB) leukemia) of 90.8 µM and a TGI (MCF7 breast) of 30.2 µM. It also gave a TGI (DU-145 prostate) of 30.9 µM, a TGI (MOLT-4 leukemia) of 59.8 µM and a TGI (UACC-62 melanoma) of 27.6 µM. The TGI (NCI-H522 lung) was 32.5 µM, the TGI (T-47D breast) was 24 µM and the TGI (PC-3 prostate) was 29 µM. For the same molecule, the TGI (UO-31 renal) was 33.1 µM, the TGI (HOP-92 NSCLC) was 31.4 µM and the TGI (IGROV1 ovarian) was 30.4 µM. The TGI (LOX IMVI melanoma) was 35.1 µM, the TGI (A498 renal) was 29.5 µM and the TGI (EKVX NSCLC) was 27.2 µM. It also gave a TGI (NCI/ADR-RES ovarian) of 40.8 µM, a TGI (CAKI-1 renal) of 34.4 µM and a TGI (SK-MEL-28 melanoma) of 44.1 µM. It also gave a TGI (RXF 393 renal) of 23.6 µM, a TGI (SW-620 colon) of 71.2 µM and a TGI (K-562 leukemia) of over 100 µM. For the same molecule, the TGI (ACHN renal) was 30 µM, the TGI (HCT-15 colon) was 34.4 µM and the TGI (SK-MEL-5 melanoma) was 33.4 µM. The TGI (SNB-19 CNS) was 38 µM, the TGI (OVCAR-4 ovarian) was 30.1 µM and the TGI (HOP-62 NSCLC) was 36.3 µM.
